{"source": "patent US20260306491A1", "about": "“EGFR INHIBITOR FOR TREATING CANCERS COMPRISING ATYPICAL EGFR MUTATIONS” (ORIC Pharmaceuticals, Inc., priority 2023, published 2026)", "key": {"[1]": {"test_system": "EGFR exon 20 insertion mutated NSCLC", "test": "Clinical study: duration of treatment and antitumor response, EGFR exon 20 insertion mutated NSCLC (Example 10)", "format": "in vivo, human", "conditions": "oral hemifumarate, one value per subject", "method": "A clinical study was conducted using Compound I in human subjects having non-small cell lung cancer (NSCLC) comprising EGFR exon 20 insertion mutations, HER2 exon 20 insertion mutations, or HER2 amplification or overexpression. A total of 50 human subjects having non-small cell lung cancer comprising one or more EGFR exon 20 insertion mutations, HER2 exon 20 insertion mutations, or HER2 amplification or overexpression were enrolled in the study as of Jul. 31, 2023 with data collected as of Sep. 26, 2023. The subjects were enrolled into one of ten dosing cohorts that were each orally administered Compound I in the form of a hemifumarate salt as shown in Table 13 (QD=once per day; BID=twice per day).\nDuration of treatment and antitumor responses achieved in evaluable subjects with EGFR exon 20 insertion mutated NSCLC (dose level greater than or equal to 45 mg TDD and at least one post-baseline tumor assessment) who were administered Compound I in the form of a hemifumarate salt are set forth in Tables 19 and 20, respectively."}, "[2]": {"test": "Phase 1 relative bioavailability of capsule and tablet in healthy subjects: safety", "format": "in vivo, human", "method": "A Phase 1, open-label, single dose study was conducted in healthy human subjects to evaluate the relative bioavailability of two formulations of Compound I. The first formulation of Compound I (Treatment A) was in the form of a capsule comprising about 15 mg of Compound I in the form of a hemifumarate, while the second formulation of Compound I (Treatment B) was in the form of a tablet comprising about 10 mg of Compound I in the form of a malonate and pharmaceutically acceptable excipients. The primary objective of the study was to evaluate the relative bioavailability (BA) of Treatment A and Treatment B administered as a single oral dose under fasting conditions in healthy adult subjects. A secondary objective was to evaluate the safety and tolerability of single dose administration of Compound I Treatment B under fasting conditions. The endpoints of the study were AUC0-last, AUC0-24, AUC0-inf, AUC % extrap, Cmax, Tmax, Kel, t½, CL/F, and Vz/F for Treatment A and Treatment B. The endpoints also included Aetl-t2, Ae, CLr, Fet1-t2, and Fe from Treatment B in period 2. A secondary endpoint included treatment-emergent AEs (TEAEs), clinical laboratory tests, vital signs, and 12 lead electrocardiogram (ECGs).\nMethodology: The study was conducted as an open-label, single-dose study. Screening of subjects occurred within 28 days prior to the first dosing. The study was conducted as a randomized, 2-period, crossover study to assess the relative BA of Treatment A and Treatment B. On Day 1 of Period 1 and of Period 2, a single oral dose of Treatment A or Treatment B were administered under fasting conditions. Blood samples for PK were collected pre-dose and through 216 hours post-dose. Urine samples for PK were collected pre-dose and through 48 hours post-dose from subjects randomized to Period 2 Treatment B (tablets). There was a washout period of at least 10 days between dosing in each period. Safety was monitored throughout the study by repeated clinical and laboratory evaluations. Discontinued subjects were not replaced. All 30 enrolled subjects completed the study and were included in the PK and safety analyses.\n60 mg Compound I in the form of Treatment B (6×10 mg tablets) was administered at Hour 0 on Day 1 under fasting conditions along with approximately 240 mL of water after a 10-hour fast. The total duration of participation including the screening period for each subject was approximately 8 weeks. There were 2 periods of approximately 14 days each; washout phase was 10 days between both doses. 60 mg of Compound I in the form of Treatment A (4×15 mg capsules) was administered to subjects at Hour 0 on Day 1 under fasting conditions along with approximately 240 mL of water after a 10-hour fast.\nPlasma samples for the analysis of Compound I were collected at the following time points relative to dosing on Day 1 of each period: pre-dose and at 0.5, 1, 2, 3, 4, 5, 6, 7, 8, 10, 12, 16, 24, 36, 48, 72, 96, 120, 144, and 216 hours post-dose. Safety was evaluated by TEAEs, clinical laboratory tests, vital signs, 12 lead ECGs, and physical examinations. An analysis of variance (ANOVA) was performed on the natural log (ln)-transformed AUC0-last, AUC0-inf, and Cmax. The ANOVA model included sequence, treatment, and period as fixed effects, and subject nested within sequence as a random effect, and included calculation of least-squares means (LSMs) as well as the difference between treatment LSMs. Ratios of LSMs were calculated using the exponentiation of the difference between treatment LSMs from the analyses on the In-transformed AUC0-last, AUC0-inf, and Cmax. […] Safety was evaluated by clinical laboratory tests, physical examination, vital signs, 12 lead ECGs, and adverse events (AEs). There was no inferential statistics performed."}, "[3]": {"conditions": "60 mg single oral, healthy subjects"}, "[4]": {"conditions": "60 mg single oral, healthy subjects (30)"}, "[5]": {"conditions": "overall, 60 mg single oral, mild"}}, "note": "Several values for one entry are separate records, joined by “and”; a condition that tells them apart may be missing. Equal values may be shown once.", "data": [{"smiles": "C=CC(=O)Nc1cc(Nc2cc(N3OCC[C@@H]3c3cc(F)cc(F)c3)ncn2)c(OC)cc1N1CCC(N2CCN(C3CC3)CC2)CC1", "note": "[Compound I, N-[2-[4-(4-cyclopropyl-1-piperazinyl)-1-piperidinyl]-5-[[6-[(3R)-3-(3,5-difluorophenyl)-2-isoxazolidinyl]-4-pyrimidinyl]amino]-4-methoxyphenyl]-2-propenamide]", "values": [{"measurement": "Duration of treatment", "setting": "[1]; dosing cohort 30 BID", "result": "ongoing"}, {"measurement": "Duration of treatment", "setting": "[1]; dosing cohort 45 QD", "result": "84 days and ongoing and 134 days and 28 days"}, {"measurement": "Duration of treatment", "setting": "[1]; dosing cohort 60 QD", "result": "33 days and ongoing and 20 days"}, {"measurement": "Duration of treatment", "setting": "[1]; dosing cohort 75 QD", "result": "90 days and 109 days and 20 days and ongoing"}, {"measurement": "Duration of treatment", "setting": "[1]; dosing cohort 90 QD", "result": "28 days and 52 days"}, {"measurement": "Safety and tolerability", "setting": "[2]; 60 mg single oral (capsule or tablet), fasting, healthy subjects", "result": "generally safe and well tolerated"}, {"measurement": "Clinical laboratory tests, vital signs, 12-lead ECG, physical examination", "setting": "[2]; [3]", "result": "no clinically significant findings or trends"}, {"measurement": "Deaths, serious adverse events (SAEs), or TEAEs leading to discontinuation", "setting": "[2]; [3]", "result": "no deaths, serious adverse events (SAEs), or TEAEs leading to subject discontinuation"}, {"measurement": "Severe TEAEs", "setting": "[2]; [4]", "result": "No severe TEAEs were reported"}, {"measurement": "Subjects reporting TEAEs", "setting": "[2]; [4]", "result": 47, "unit": "%"}, {"measurement": "Subjects reporting TEAEs, number", "setting": "[2]; [4]", "result": 14, "unit": "n"}, {"measurement": "Subjects with TEAEs of maximum severity mild", "setting": "[2]; [4]", "result": 33, "unit": "%"}, {"measurement": "Subjects with TEAEs of maximum severity mild, number", "setting": "[2]; [4]", "result": 10, "unit": "n"}, {"measurement": "Subjects with TEAEs of maximum severity moderate", "setting": "[2]; [4]", "result": 13, "unit": "%"}, {"measurement": "Subjects with TEAEs of maximum severity moderate, number", "setting": "[2]; [4]", "result": 4, "unit": "n"}, {"measurement": "Subjects with TEAEs related to the study drug", "setting": "[2]; [4]", "result": 40, "unit": "%"}, {"measurement": "Subjects with TEAEs related to the study drug, number", "setting": "[2]; [4]", "result": 12, "unit": "n"}, {"measurement": "Constipation (TEAE)", "setting": "[2]; [5]", "result": 10, "unit": "%"}, {"measurement": "Constipation (TEAE), number of subjects", "setting": "[2]; [5]", "result": 3, "unit": "n"}, {"measurement": "Dry skin (TEAE)", "setting": "[2]; [5]", "result": 10, "unit": "%"}, {"measurement": "Dry skin (TEAE), number of subjects", "setting": "[2]; [5]", "result": 3, "unit": "n"}, {"measurement": "Epistaxis (TEAE)", "setting": "[2]; [5]", "result": 10, "unit": "%"}, {"measurement": "Epistaxis (TEAE), number of subjects", "setting": "[2]; [5]", "result": 3, "unit": "n"}, {"measurement": "Papular rash (TEAE)", "setting": "[2]; [5]", "result": 10, "unit": "%"}, {"measurement": "Papular rash (TEAE), number of subjects", "setting": "[2]; [5]", "result": 3, "unit": "n"}]}]}
